Reference: patent publication US10155047B2, “Polymers having therapeutically active agents conjugated thereto, processes of preparing same and uses thereof” (Ramot at Tel-Aviv University Ltd., priority 2012, dated 2018)
Blank lines part the entries; values can stand above or below the molecule they belong to. Ends that are not written are not given here. PGA = not defined here

Key:
[1] = tested on: ES2 cells; assay: Binding to ES2 cells (FACS); format: cell-based, human
Method: Cells were washed with PBS, harvested using a cell scraper and labeled by incubation with APC-conjugated CD-56 antibody (Biolegend) for 45 min at 4° C. in the dark. Cells were washed three times with PBS and filtrated with 100 μm cell strainer (BD Falcon).
Binding of C3 (SEQ ID NO:3) to ES2 cells, and competition of binding of the NCAM-specific antibody APC-conjugated anti-human CD56 (NCAM) (BioLegend) and bFGF was examined by FACS.
PGA and PGA-C3 were labeled with FITC on the N-terminal of the PGA chain. Binding to ES-2 cells was examined by FACS.

[2] = tested on: Saos-2 cells; assay: NTP binding to Saos2 cells (confocal microscopy); format: cell-based, human; details: fluorescently labeled peptides
Method: Cell specificity and uptake of the fluorescently labeled peptides was monitored utilizing a Zeiss Meta LSM 510 confocal imaging system. Cells were plated on glass slides and incubated overnight. The following day cells were incubated with 100 μM of CF-NTP or CF-scrambled peptide for 30 minutes at 37° C., washed several times with PBS, fixated with 4% paraformaldehyde, stained with Hoechst stain and mounted on slides. In order to examine intracellular trafficking of the peptide, cells were incubated with the peptides in serum free medium, washed several times with cold PBS and incubated with […] AlexaFluor 594 human transferrin for 1 h at 37° C. Cells were washed several times with PBS, fixated with 4% PFA, stained with Hoechst stain and mounted on slides.
Binding of NTP (SEQ ID NO:1) to Saos-2 cells, compared to binding of sNTP (SEQ ID NO:2), was examined by confocal microscopy. FITC-labeled targeting peptides were used. […] In experiments with transferrin, peptide was seen as intracellular aggregates or vesicles, though not colocalized with transferrin.

[3] = tested on: NCAM-expressing Mel-526 human melanoma cells; assay: Binding to NCAM-expressing Mel-526 cells; format: cell-based
[4] = tested on: HUVECs; assay: HUVEC proliferation assay (MTT, 72 hours); format: cell-based, human
Method: Human umbilical vein endothelial cells (HUVECs) were isolated from umbilical cords and were cultured in EGM-2 media.
(§1) After incubation cell viability was determined by MTT assay.
(§2) For evaluating anti-proliferative activity of a combination of PTX and DOX, cells were treated with varying concentrations of DOX with a set concentration of PTX or varying concentrations of PTX with a set concentration of DOX.
Same procedure was followed for other drugs and combination treatments.
(§3) In an exemplary procedure, selected inhibition concentration values (e.g., IC40, IC60 and IC80) of PTX, DOX and combinations thereof from a respective cell proliferation assay were collected. The selected inhibition concentration values of DOX and PTX were marked on X and Y axes respectively and a line which represents additive effect was drawn between each inhibitory concentration (IC). The combination index (CI) of each treatment was calculated according to the classic isobologram equation CI=[(D)1/(Dx)1]+[(D)2/(Dx)2].
The effect of PTX at various concentrations (0.0001, 0.001, 0.01, 0.1, 1, 10, 100, 1000, and 10,000 nM), and of doxorubicin at various concentrations (0.001, 0.001, 0.01, 0.1, 1, 10, 100, 1000, 10,000, 100,000 nM) on the proliferation of HUVEC p3 cells was tested. The obtained data is presented in FIG. 1A for PTX and in FIG. 1B for DOX.
For evaluating the effect of the combination treatment, 0.1 or 1 nM DOX with various concentrations of PTX and 0.1 or 1 nM PTX with various concentrations of DOX were tested.
The effect of PTX at various concentrations, TNP-470 at various concentrations and of various combinations of a set concentration of PTX and variable concentrations of TNP-470 and a set concentration of TNP-470 and variable concentrations of PTX, on proliferation of HUVECs, was tested. Similar assays were performed in the presence of 10,000 nM alendronate. The obtained data is presented in FIG. 7A (no alendronate) and in FIG. 7B (in the presence of alendronate).
The effect of the PGA-PTX-DOX conjugate (Route 1, see, FIG. 18) on HUVECs proliferation was tested and compared to the free drugs, each alone and in combination.

[5] = tested on: MDA-MB-231 cells; assay: MDA-MB-231 cell proliferation assay (72 hours); format: cell-based, human; details: for IC20 / IC 40 / IC 60: MDA-MB-231, single drug
Method: Human MDA-MB-231 cells were purchased from American Tissue Culture Collection (ATCC), and were cultured in DMEM supplemented with 10% FBS, 100 μg/ml penicillin, 100 U/ml streptomycin, 12.5 U/ml nystatin. All Cells were grown at 37° C., 5% CO2.
(§4) In an exemplary procedure, cells were plated onto 96-well plates in appropriate complete medium for each cell line as described above, and incubated for 24 hours (37° C.; 5% CO2). On the following day cells were treated with e.g., paclitaxel at various concentrations (e.g., 0.0001, 0.001, 0.01, 0.1, 1, 10, 100, 1000, 10,000 nM) or, e.g., doxorubicin at various concentrations (e.g., 0.001, 0.001, 0.01, 0.1, 1, 10, 100, 1000, 10,000, 100,000 nM) for 72 hours. After incubation cell viability was determined by MTT assay.
as §2
Selected inhibition concentration values (e.g., IC50, IC40, IC60 and IC80 values (growth inhibition by 50, 40, 60 and 80% respectively) were derived from the obtained growth charts.
as §3
The effect of PTX, DOX and combinations thereof on the proliferation of human MDA-MB-231 cells was tested.
FIG. 6A presents the results obtained for PTX and DOX, each alone, at various concentrations within a range of 0.01-10000 nM, and for various concentrations of PTX with 20 nM DOX, and for various concentrations of DOX with 1 nM PTX. […] Data represents mean±SD.
In order to evaluate the combination treatment effect, data from combination treatment results were collected, analyzed and calculated according to CI equations. Combination treatments I (PTX+DOX 20 nM) and II (DOX+PTX 1 nM) inhibited MDA-MB-231 cells proliferation of IC 20, 40, 60 at 0.8, 4, 25 and 4, 150, 700 nM respectively.
The activity of a PGA-PTX-DOX conjugate (Route 2, see, FIG. 19D) was examined in vitro on proliferation of MDA-MB-231 human breast cancer cells. Cells were incubated with the conjugates PGA-PTX-DOX, PGA-PTX, PGA-DOX and combination of PGA-PTX and PGA-DOX (in the same ratio as on the PGA-PTX-DOX conjugate), the free drugs PTX, DOX and their combination (in the same ratio as on the PGA-PTX-DOX conjugate) and with PGA for 72 hours.

[6] = tested on: ES-2 ovarian carcinoma cells; assay: ES-2 cell proliferation assay (72 hours); format: cell-based, human
Method: ES-2 human ovarian carcinoma cells were purchased from the ATCC.
as §1, §3
The effect of DOX and PTX combinations on viability of ES2 and Saos2 cells was examined. Cells were treated with PTX alone, DOX alone, varying concentrations of DOX with a set concentration of PTX (10 or 50 nM for ES2, 1 nM for Saos2) or varying concentrations of PTX with a set concentration of DOX (10 or 50 nM). IC20, IC40 and IC60 values (growth inhibition by 20, 40 and 60% respectively) were derived from the growth charts and combination index (CI) values were calculated.
The activity of PGA-PTX-DOX conjugate (Route 1, see, FIG. 18) and of PGA-PTX-DOX conjugate (Route 2, see, FIG. 19D) was examined in vitro on proliferation of ES-2 ovarian carcinoma cells.
(§5) The effect of DOX and PTX treatments on proliferation of ES2 and SK N MC cells after sorting to NCAM+/− and/or on unsorted cells was examined, to test whether NCAM+ cells are more resistant to chemotherapeutic drugs.

[7] = tested on: SK N MC cells; assay: SK N MC cell proliferation assay after sorting to NCAM+/-; format: cell-based
Method: as §4
Cells were harvested and labeled as described above, and resuspended in the appropriate cell culture medium (according to cell type) with 5% FBS. Cells were filtrated with 100 μm cell strainer before sorting. Sorted cells were collected into tubes containing complete medium with 0.5 mg/ml gentamycin (Biological Industries, Israel). All work was done in sterile conditions.
as §5

[8] = tested on: MDA-MB-231 cells; assay: Internalization and intracellular release of DOX, confocal microscopy; format: cell-based, human; details: 400 nM DOX-equivalent
Method: Internalization and intracellular release of DOX from the conjugates was evaluated by confocal microscopy (Leica SP5). MDA-MB-231 cells were incubated with free DOX and DOX-containing conjugates (PGA-DOX, PGA-PTX-DOX) at 400 nM equivalent concentrations for 20 minutes, 2, 6 or 24 hours. Following incubation, cells were washed, fixed with 4% PFA and mounted on glass slides using Prolong® Gold antifade reagent with DAPI (4′-6-Diamidino-2-phenylindole) (Invitrogen) for nucleus. DOX was excited at 488 nm and its emission was recorded at 550-700 nm.

Molecule: PGA-C3: PGA conjugated to C3 peptide (SEQ ID NO:3) through the N-terminal amine ({PGA}-GASKKPKRNIKA; reading uncertain)
binding to cells ([1]; ES-2, FITC-labeled polymers): bound more strongly than non-targeted PGA and similarly to free C3 peptide

Molecule: GESDDEND [scrambled peptide]
binding to cells [2]: does not

Molecule: CF-labeled C3: C3 (SEQ ID NO:3) labeled at the N-terminal with 5(6)-carboxyfluorescein ({5(6)‑carboxyfluorescein}-GASKKPKRNIKA)
binding to cells ([1]; ES2, CF-labeled peptide alone): bound at levels much higher than NCAM expression
binding when incubated with NCAM antibody or bFGF ([1]; ES2, competition): its binding decreased

Molecule: GDDSDEEN [NTP, NCAM-targeting peptide]
binding to cells [2]: binds to the cells

Molecule: GASKKPKRNIKA [C3, NCAM targeting peptide C3 with added N-terminal glycine]
binding [3]: 50%

IC50 ([6]; ES2 cells sorted NCAM+): 300 nM
IC50 ([6]; ES2 cells sorted NCAM−): 150 nM
IC50 ([6]; ES2 cells unsorted): 250 nM
IC50 ([6]; ES-2, 72 hours, conjugates of Route 2 (FIG. 19D), three separate experiments): 25 nM
Molecule: COc1cccc2c1C(=O)c1c(O)c3c(c(O)c1C2=O)C[C@@](O)(C(=O)CO)C[C@@H]3O[C@H]1C[C@H](N)[C@H](O)[C@H](C)O1 [DOX, doxorubicin]
IC50 ([4]; HUVEC p3, PGA-PTX-DOX is the Route 1 conjugate (FIG. 18)): 7 nM
IC50 ([4]; HUVEC proliferation, drug alone or varied with a set concentration of the other drug): 40 nM
IC20 [5]: 60 nM
IC 40 [5]: 250 nM
IC 60 [5]: 950 nM
IC50 ([7]; SK N MC cells sorted NCAM+): 90 nM
IC50 ([7]; SK N MC cells sorted NCAM−): 40 nM
IC50 ([7]; SK N MC cells unsorted): 50 nM
cell internalization [8]: rapidly internalized in the cells
incubation time after which DOX is accumulated in the nucleus [8]: 6 h

IC50 ([5]; Homo sapiens, MDA-MB-231, 72 hours, PTX- and DOX-equivalent concentrations, Route 2 conjugate (FIG. 19D)): 2 nM
IC50 ([6]; Homo sapiens, ES-2, ES2 cells sorted NCAM+): 70 nM
IC50 ([6]; Homo sapiens, ES-2, ES2 cells sorted NCAM−): 90 nM
IC50 ([6]; Homo sapiens, ES-2, ES2 cells unsorted): 70 nM
IC50 ([6]; Homo sapiens, Ovarian carcinoma cell, 72 h, ES-2, 72 hours, conjugates of Route 2 (FIG. 19D), three separate experiments): 6 nM
Molecule: CC(=O)O[C@H]1C(=O)[C@@]2(C)[C@H]([C@H](OC(=O)c3ccccc3)[C@]3(O)C[C@H](OC(=O)[C@H](O)[C@@H](NC(=O)c4ccccc4)c4ccccc4)C(C)=C1C3(C)C)[C@]1(OC(C)=O)CO[C@@H]1C[C@@H]2O [PTX, Paclitaxel]
IC50 ([4]; Homo sapiens, HUVEC, HUVEC p3, PGA-PTX-DOX is the Route 1 conjugate (FIG. 18)): 1 nM
IC50 ([4]; Homo sapiens, HUVEC, HUVEC proliferation, drug alone or varied with a set concentration of the other drug): 7 nM
IC20 ([5]; Homo sapiens): 2.5 nM
IC 40 [5]: 7 nM
IC 60 [5]: 100 nM
IC50 ([7]; Homo sapiens, SK N MC cells unsorted): 45 nM

Molecule: GASKKPAANIKA [C3ala, control peptide]
binding [3]: 20%
